Assay results reported in PubChem BioAssay (NCI).
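Grown in 96-well plates, cells were treated for 48 hours with each compound at five concentrations. Insufficient inhibition: endpoint recorded as highest concentration tested. Here, GI50 denotes the concentration required for 50% inhibition of growth. The concentration for full growth arrest is given as TGI.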

Tests used:
Experiment in all cases: inhibition of tumour cell growth, NCI panel, 48 h; in the data active = GI50 below about 0.43 µM; inactive = the rest
U251 CNS = test system: U251 CNS
SN12C renal = test system: SN12C renal
SW-620 colon = test system: SW-620 colon
MCF7 breast = test system: MCF7 breast
SF-539 CNS = test system: SF-539 CNS
UACC-62 melanoma = test system: UACC-62 melanoma
RXF 393 renal = test system: RXF 393 renal
MDA-MB-435 = test system: MDA-MB-435
HCT-116 colon = test system: HCT-116 colon
OVCAR-3 ovarian = test system: OVCAR-3 ovarian
SNB-19 CNS = test system: SNB-19 CNS
KM12 colon = test system: KM12 colon
NCI/ADR-RES ovarian = test system: NCI/ADR-RES ovarian
ACHN renal = test system: ACHN renal
TK-10 renal = test system: TK-10 renal
SK-MEL-2 melanoma = test system: SK-MEL-2 melanoma
SNB-75 CNS = test system: SNB-75 CNS
OVCAR-5 ovarian = test system: OVCAR-5 ovarian
PC-3 prostate = test system: PC-3 prostate
SF-268 CNS = test system: SF-268 CNS
LOX IMVI melanoma = test system: LOX IMVI melanoma
HCC-2998 colon = test system: HCC-2998 colon
DU-145 prostate = test system: DU-145 prostate
A549 NSCLC = test system: A549 NSCLC
OVCAR-4 ovarian = test system: OVCAR-4 ovarian
HOP-92 NSCLC = test system: HOP-92 NSCLC
HL-60(TB) leukemia = test system: HL-60(TB) leukemia
SF-295 CNS = test system: SF-295 CNS
NCI-H23 lung = test system: NCI-H23 lung
NCI-H460 lung = test system: NCI-H460 lung
HS 578T breast = test system: HS 578T breast
786-0 renal = test system: 786-0 renal
OVCAR-8 ovarian = test system: OVCAR-8 ovarian
IGROV1 ovarian = test system: IGROV1 ovarian
CCRF-CEM leukemia = test system: CCRF-CEM leukemia
HT29 colon = test system: HT29 colon
HOP-62 NSCLC = test system: HOP-62 NSCLC
SK-MEL-28 melanoma = test system: SK-MEL-28 melanoma
UACC-257 melanoma = test system: UACC-257 melanoma
K-562 leukemia = test system: K-562 leukemia
NCI-H226 lung = test system: NCI-H226 lung
MDA-MB-231 breast = test system: MDA-MB-231 breast
SK-OV-3 ovarian = test system: SK-OV-3 ovarian
NCI-H522 lung = test system: NCI-H522 lung
HCT-15 colon = test system: HCT-15 colon
UO-31 renal = test system: UO-31 renal
SK-MEL-5 melanoma = test system: SK-MEL-5 melanoma
CAKI-1 renal = test system: CAKI-1 renal
MALME-3M melanoma = test system: MALME-3M melanoma
MOLT-4 leukemia = test system: MOLT-4 leukemia
SR leukemia = test system: SR leukemia
T-47D breast = test system: T-47D breast
RPMI-8226 leukemia = test system: RPMI-8226 leukemia
M14 melanoma = test system: M14 melanoma
COLO 205 colon = test system: COLO 205 colon
BT-549 breast = test system: BT-549 breast
EKVX NSCLC = test system: EKVX NSCLC

COc1cc(Nc2ccnc(N3CCN(c4ccnc5cc(Cl)ccc45)CC3)n2)cc(OC)c1
5.68 µM: TGI (LOX IMVI melanoma)
> 45.1 µM: TGI (OVCAR-4 ovarian)
> 27.8 µM: TGI (SW-620 colon)
> 28.9 µM: TGI (OVCAR-3 ovarian)
inactive: GI50 (U251 CNS) 1.66 µM | GI50 (SN12C renal) 1.28 µM | GI50 (SW-620 colon) 0.601 µM | GI50 (SF-539 CNS) 1.25 µM | GI50 (UACC-62 melanoma) 0.614 µM | GI50 (RXF 393 renal) 1.86 µM | GI50 (HCT-116 colon) 0.496 µM | GI50 (OVCAR-3 ovarian) 2.53 µM | GI50 (SNB-19 CNS) 2.64 µM | GI50 (NCI/ADR-RES ovarian) 1.1 µM | GI50 (ACHN renal) 2.04 µM | GI50 (TK-10 renal) 2.22 µM | GI50 (SK-MEL-2 melanoma) 0.738 µM | GI50 (SNB-75 CNS) 1.95 µM | GI50 (OVCAR-5 ovarian) 2.41 µM | GI50 (PC-3 prostate) 1.4 µM | GI50 (SF-268 CNS) 3.05 µM | GI50 (LOX IMVI melanoma) 0.749 µM | GI50 (HCC-2998 colon) 2.8 µM | GI50 (DU-145 prostate) 3.25 µM | GI50 (A549 NSCLC) 1.81 µM | GI50 (OVCAR-4 ovarian) 0.477 µM | GI50 (HOP-92 NSCLC) 0.431 µM | GI50 (HL-60(TB) leukemia) 2.58 µM | GI50 (NCI-H23 lung) 1.32 µM | GI50 (NCI-H460 lung) 1.51 µM | GI50 (HS 578T breast) 2.59 µM | GI50 (786-0 renal) 1.6 µM | GI50 (OVCAR-8 ovarian) 1.97 µM | GI50 (IGROV1 ovarian) 1.36 µM | GI50 (CCRF-CEM leukemia) 1.38 µM | GI50 (HT29 colon) 0.46 µM | GI50 (HOP-62 NSCLC) 1.98 µM | GI50 (SK-MEL-28 melanoma) 1.39 µM | GI50 (UACC-257 melanoma) 3.35 µM | GI50 (K-562 leukemia) 0.432 µM | GI50 (NCI-H226 lung) 2.34 µM | GI50 (MDA-MB-231 breast) 0.567 µM | GI50 (SK-OV-3 ovarian) 3.17 µM | GI50 (NCI-H522 lung) 0.874 µM | GI50 (UO-31 renal) 0.938 µM
active: GI50 (MCF7 breast) 0.198 µM | GI50 (MDA-MB-435) 0.209 µM | GI50 (KM12 colon) 0.101 µM | GI50 (SF-295 CNS) 0.289 µM | GI50 (HCT-15 colon) 0.109 µM
3.17 µM: TGI (SF-539 CNS)
5.47 µM: TGI (NCI/ADR-RES ovarian)
> 26.7 µM: TGI (A549 NSCLC)
> 30.7 µM: TGI (UO-31 renal)
> 55.7 µM: TGI (NCI-H226 lung)
4.02 µM: TGI (SK-MEL-2 melanoma)
4.6 µM: TGI (786-0 renal)
> 26.9 µM: TGI (U251 CNS)
14.2 µM: TGI (HOP-62 NSCLC)
> 36.3 µM: TGI (SK-OV-3 ovarian)
> 26.1 µM: TGI (IGROV1 ovarian)
> 25.6 µM: TGI (MCF7 breast)
3.76 µM: TGI (UACC-62 melanoma)
0.626 µM: TGI (MDA-MB-435)
6.81 µM: TGI (SNB-75 CNS)
> 100 µM: TGI (SN12C renal) | TGI (RXF 393 renal) | TGI (SNB-19 CNS) | TGI (KM12 colon) | TGI (ACHN renal) | TGI (TK-10 renal) | TGI (OVCAR-5 ovarian) | TGI (PC-3 prostate) | TGI (SF-268 CNS) | TGI (HCC-2998 colon) | TGI (DU-145 prostate) | TGI (HL-60(TB) leukemia) | TGI (NCI-H23 lung) | TGI (NCI-H460 lung) | TGI (HS 578T breast) | TGI (CCRF-CEM leukemia) | TGI (SK-MEL-28 melanoma) | TGI (UACC-257 melanoma) | TGI (K-562 leukemia) | TGI (MDA-MB-231 breast) | TGI (HCT-15 colon)
2.13 µM: TGI (SF-295 CNS)
> 23 µM: TGI (OVCAR-8 ovarian)
6.61 µM: TGI (HOP-92 NSCLC)
10.3 µM: TGI (HCT-116 colon)
2.96 µM: TGI (HT29 colon)
4.48 µM: TGI (NCI-H522 lung)

N=C(N)c1ccc(-c2ccc(-c3ccc(Cl)cc3Cl)o2)cc1
3.03 µM: TGI (SK-MEL-28 melanoma)
4.99 µM: TGI (HS 578T breast)
3.18 µM: TGI (UO-31 renal)
3.09 µM: TGI (MDA-MB-435)
3.06 µM: TGI (ACHN renal)
3.13 µM: TGI (SK-MEL-5 melanoma)
4.28 µM: TGI (NCI-H226 lung)
inactive: GI50 (MDA-MB-435) 1.7 µM | GI50 (ACHN renal) 1.68 µM | GI50 (SK-MEL-5 melanoma) 1.74 µM | GI50 (SNB-75 CNS) 1.4 µM | GI50 (OVCAR-5 ovarian) 1.53 µM | GI50 (SF-268 CNS) 2.03 µM | GI50 (HS 578T breast) 2.13 µM | GI50 (SK-MEL-28 melanoma) 1.61 µM | GI50 (NCI-H226 lung) 1.82 µM | GI50 (SK-OV-3 ovarian) 1.62 µM | GI50 (UO-31 renal) 1.67 µM
4.65 µM: TGI (SF-268 CNS)
2.95 µM: TGI (OVCAR-5 ovarian)
3.23 µM: TGI (SK-OV-3 ovarian)
2.73 µM: TGI (SNB-75 CNS)

CCOC(=O)C1(C(=O)OCC)CCC(C(OC)OC)C(CC(=O)OC)C1 (centres undefined)
> 10 µM: TGI (U251 CNS) | TGI (SW-620 colon) | TGI (CAKI-1 renal) | TGI (MCF7 breast) | TGI (MALME-3M melanoma) | TGI (UACC-62 melanoma) | TGI (RXF 393 renal) | TGI (MDA-MB-435) | TGI (NCI/ADR-RES ovarian) | TGI (ACHN renal) | TGI (SK-MEL-5 melanoma) | TGI (MOLT-4 leukemia) | TGI (SK-MEL-2 melanoma) | TGI (SR leukemia) | TGI (T-47D breast) | TGI (SNB-75 CNS) | TGI (RPMI-8226 leukemia) | TGI (SF-268 CNS) | TGI (A549 NSCLC) | TGI (OVCAR-4 ovarian) | TGI (M14 melanoma) | TGI (HOP-92 NSCLC) | TGI (COLO 205 colon) | TGI (HL-60(TB) leukemia) | TGI (NCI-H23 lung) | TGI (NCI-H460 lung) | TGI (786-0 renal) | TGI (IGROV1 ovarian) | TGI (CCRF-CEM leukemia) | TGI (HOP-62 NSCLC) | TGI (SK-MEL-28 melanoma) | TGI (K-562 leukemia) | TGI (SK-OV-3 ovarian)

O=c1[nH]c(=O)n(C2CC(O)C(CO)O2)cc1OC/C=C/Cc1ccccc1 (centres undefined)
> 100 µM: TGI (U251 CNS) | TGI (SN12C renal) | TGI (CAKI-1 renal) | TGI (MCF7 breast) | TGI (MALME-3M melanoma) | TGI (UACC-62 melanoma) | TGI (RXF 393 renal) | TGI (MDA-MB-435) | TGI (HCT-116 colon) | TGI (OVCAR-3 ovarian) | TGI (SNB-19 CNS) | TGI (KM12 colon) | TGI (NCI/ADR-RES ovarian) | TGI (ACHN renal) | TGI (SK-MEL-5 melanoma) | TGI (TK-10 renal) | TGI (MOLT-4 leukemia) | TGI (SR leukemia) | TGI (T-47D breast) | TGI (SNB-75 CNS) | TGI (OVCAR-5 ovarian) | TGI (RPMI-8226 leukemia) | TGI (PC-3 prostate) | TGI (SF-268 CNS) | TGI (LOX IMVI melanoma) | TGI (DU-145 prostate) | TGI (A549 NSCLC) | TGI (OVCAR-4 ovarian) | TGI (M14 melanoma) | TGI (COLO 205 colon) | TGI (HL-60(TB) leukemia) | TGI (SF-295 CNS) | TGI (NCI-H23 lung) | TGI (NCI-H460 lung) | TGI (BT-549 breast) | TGI (HS 578T breast) | TGI (786-0 renal) | TGI (OVCAR-8 ovarian) | TGI (IGROV1 ovarian) | TGI (EKVX NSCLC) | TGI (CCRF-CEM leukemia) | TGI (HT29 colon) | TGI (HOP-62 NSCLC) | TGI (SK-MEL-28 melanoma) | TGI (UACC-257 melanoma) | TGI (K-562 leukemia) | TGI (NCI-H226 lung) | TGI (MDA-MB-231 breast) | TGI (SK-OV-3 ovarian) | TGI (NCI-H522 lung) | TGI (HCT-15 colon) | TGI (UO-31 renal)
